pIC50: −log10 of the molar value. Converted amounts (≈) assume the structure as drawn.
Key:
[1] = biological target: recombinant NA-1 (H1N1 neuraminidase) (Influenza A virus, UniProt Q9IGQ6); test: biochemical
bacterial NA = details: cited from earlier work
mouse liver sialidase = details: cited from earlier work

Chain of recombinant NA-1 (H1N1 neuraminidase) (Q9IGQ6 whole entry, looked up): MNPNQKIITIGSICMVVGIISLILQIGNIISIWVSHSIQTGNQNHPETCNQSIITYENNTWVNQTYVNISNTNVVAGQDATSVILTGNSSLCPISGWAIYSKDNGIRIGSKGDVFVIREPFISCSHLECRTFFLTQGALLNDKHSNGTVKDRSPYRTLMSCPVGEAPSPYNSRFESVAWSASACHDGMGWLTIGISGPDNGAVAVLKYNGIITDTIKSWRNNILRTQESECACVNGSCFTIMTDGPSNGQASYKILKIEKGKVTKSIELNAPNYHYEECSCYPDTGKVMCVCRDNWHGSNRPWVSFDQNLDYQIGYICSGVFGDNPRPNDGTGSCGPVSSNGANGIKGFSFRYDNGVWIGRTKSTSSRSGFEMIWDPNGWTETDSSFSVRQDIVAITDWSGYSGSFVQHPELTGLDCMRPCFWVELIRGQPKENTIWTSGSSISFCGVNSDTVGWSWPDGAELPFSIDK

SMILES | IC10 on NA-1 activity [1] | pIC50 [1] | Inhibition of bacterial NA activity (bacterial NA) | Inhibition of mouse liver sialidase (mouse liver sialidase) | IC50 on NA-1 activity [1]
COc1c(O[C@@H]2O[C@H](C(=O)O)[C@@H](O)[C@H](O)[C@H]2O)cc2oc(-c3ccccc3)cc(=O)c2c1O [Oroxylin A 7-O-β-D-glucuronide] | 29.3 ± 7.8 µg/mL (≈ 63.6 µM) | 3.21 |  |  | 
COc1cc2c(cc1OC)-c1cc3ccc(OC)c(OC)c3c[n+]1CC2 [Palmatine] | 2.1 ± 0.1 µg/mL | 4.30 | inhibited |  | 
COc1cc2c(cc1O)C[C@H]1c3cc(O)c(OC)cc3CC[N@@+]1(C)C2 [Phellodendrine] | 23.1 ± 2.7 µg/mL | 3.22 |  |  | 
COc1cc2c(cc1O)CC[n+]1cc3c(OC)c(OC)ccc3cc1-2 [Jatrorrhizine] | 1.9 ± 0.1 µg/mL | 4.17 | inhibited |  | 
O=C(O)[C@H]1O[C@@H](Oc2cc3oc(-c4ccccc4)cc(=O)c3c(O)c2O)[C@H](O)[C@@H](O)[C@@H]1O [Baicalin] |  | 2.78 |  |  | 
COC(=O)C1=CO[C@@H](O[C@@H]2O[C@H](CO)[C@@H](O)[C@H](O)[C@H]2O)[C@@H]2C(CO)=CC[C@H]12 [Geniposide] | 2.8 ± 0.2 µg/mL (≈ 7.21 µM) | 4.06 |  |  | 
COc1ccc2cc3[n+](cc2c1OC)CCc1cc2c(cc1-3)OCO2 [Berberine] | 3.1 ± 0.8 µg/mL | 3.63 |  |  | 
c1c2c(cc3c1OCO3)-c1cc3ccc4c(c3c[n+]1CC2)OCO4 [Coptisine] |  | 3.49 | inhibited |  | 
COc1c(O)cc2oc(-c3ccccc3)cc(=O)c2c1O [Oroxylin A] | 5.1 ± 1.4 µg/mL (≈ 17.9 µM) | 3.70 |  |  | 
COc1c(O)cc(O)c2c(=O)cc(-c3ccccc3)oc12 [Wogonin] | 34.0 ± 5.1 µg/mL (≈ 120 µM) | 3.06 |  | inhibited | 
COc1c(O[C@@H]2O[C@H](C(=O)O)[C@@H](O)[C@H](O)[C@H]2O)cc(O)c2c(=O)cc(-c3ccccc3)oc12 [Wogonoside] | 19.6 ± 2.7 µg/mL (≈ 42.6 µM) | 3.39 |  | inhibited | 
O=c1cc(-c2ccccc2)oc2cc(O)c(O)c(O)c12 [Baicalein] | 75.0 ± 29.1 µg/mL (≈ 278 µM) | 3.23 |  |  | 
COc1cc2c(cc1OC)-c1cc3ccc4c(c3c[n+]1CC2)OCO4 [Epiberberine] |  | 4.00 |  |  | 
CCC(CC)[C@H](NC(C)=O)[C@@H]1[C@H](O)[C@@H](C(=O)O)C[C@H]1N=C(N)N [Peramivir, reference compound] | 64.8 ± 8.4 µg/mL (≈ 197 µM) |  |  |  | 478.8 ± 15.6 µg/mL (≈ 1460 µM)
